Data: US6667336B2, “GlyT-1 inhibitors” (NPS Allelix Corp., priority 2002, dated 2003)
“And” between values parts separate entries of the source, which are not always exact repeats. Identical values can stand only once. Marks after values point to notes of the source that are not given here.

System: male CD-1 mice
Assay: 5 day chronic oral dosing toxicity study in mice (clinical signs)
Assay type: in vivo
Set-up: key to Clinical signs (observation code), Day 1, 24 hours / Clinical signs (observation code), Day 2, 24 hours / Clinical signs (observation code), Day 3, 24 hours / Clinical signs (observation code), Day 4, 24 hours / Clinical signs (observation code), Day 5, 24 hours / Clinical signs (observation code), Day 1, 4 hours / Clinical signs (observation code), Day 2, 4 hours / Clinical signs (observation code), Day 3, 4 hours / Clinical signs (observation code), Day 4, 4 hours / Clinical signs (observation code), Day 5, 4 hours: 0: Appeared Normal; 1: Activity (inc./dec.); 2: Sedation/Lethargy; 3: Piloerection; 4: Stereotypy; 5: Soft Stool; 6: Chromodacryorrhea; 7: Epistaxis; 8: Cyanosis; 9: Flaccidity; 10: Respiration; 11: Hunched Posture; 12: Enophthalmia; 13: Exophthalmia; 14: Palpabral Ptosis; 15: Loss of Righting; 16: Chromaturia; 17: Salivation; 18: Lacrimation; 19: Miosis; 20: Mydriasis; 21: Rigidity; 22: Ataxia; 23: Tremors; 24: Convulsions; 25: Catalepsy; 26: Lateral Recumbency; 27: Death
Conditions: for Clinical signs (observation code), Day 1, 4 hours / Clinical signs (observation code), Day 1, 24 hours / Clinical signs (observation code), Day 2, 4 hours / Clinical signs (observation code), Day 2, 24 hours / Clinical signs (observation code), Day 3, 4 hours / Clinical signs (observation code), Day 3, 24 hours / Clinical signs (observation code), Day 4, 4 hours / Clinical signs (observation code), Day 4, 24 hours / Clinical signs (observation code), Day 5, 4 hours / Clinical signs (observation code), Day 5, 24 hours: one line per animal; for Toxicity profile in comparison (compounds of formula 1 vs other GlyT1 inhibitors of similar potency): 5 day oral dosing in mice, tables 1-18
Procedure: This example illustrated a 5 day chronic oral dosing toxicity study with GlyT1 inhibitors. […] Behavioral observations (clinical signs) and body weights were recorded daily for all compounds tested. Male CD-1 mice were purchased from Charles River Labs (Kingston, N.Y.). The animals weighed between 20-25 grams upon arrival. Animals were acclimatized in a temperature/humidity (72° ±5° F./50%±5%) controlled vivarium, with a common 12 hour light/dark cycle (Lights on 0700 hrs) for 5 days prior to test. All animals were allowed food (Purina Labdiete® Rodent chow # 5001) and water (supplied by Elizabethtown Water Company) ad libitum during the acclimation period and throughout the study. On the day prior to test initiation animals were randomly assigned to groups: All animals chosen for test weighed at least 20 grams and appeared in good condition. Each animal was dosed once daily for 5 days. Animals remained on site for a 3 day recovery period following the chronic dosing period.
A stock concentration of each test compound was prepared fresh on the day of study initiation. Aliquots were diluted to the needed concentrations for daily dosing. Stock solutions were kept in a refrigerator when not in use. Each compound was dissolved in a small amount of distilled water. One equivalent of sodium hydroxide (2 N) may have been added to aid in dissolution of each test agent. Vehicle was then added quantum sufficiat to give the final volume. Final volumes were adjusted to reflect percent free base when appropriate. The vehicle used in this experiment was Hydroxypropyl-β-cyclodextrine (HPCD) Acros, lot 011849601, dissolved in distilled water to form a 10% weight/volume concentration. The pH was adjusted, using sodium hydroxide (2 N), to equal that of the test agents (usually between 8 to 10). All prepared test compounds were either in solution, and clear, or in suspension, and slightly cloudy. Suspensions were mixed immediately prior to use.
All animals were administered either test compound or vehicle Per Os (PO) via 21 gauge gavage needles, in volumes of 10.0 ml/kg. Daily body weights were used to determine individual dosing volumes. All test compounds were weighed on a Denver Instruments analytical balance (model # A-250). Animals were weighed on a top loading Ohaus portable balance model # LS2000.
Animals were assessed for overt behaviors (clinical signs) immediately following administration of test agents, then again at 4 and 24 hours. Animals were assessed for 27 separate clinical signs:
Toxicity data obtained through the assay as described above is provided in Tables 1 to 14 for Compounds Gi to Gxiv inclusive. The animals were observed immediately following administration and again at 4 hours and 24 hours. Observations are reported using the code number from the following chart: […]

[1] = 40 mg/kg/day PO, male CD-1 mice

## CN(C/C=C(/c1ccc(-c2ccsc2)cc1)c1cccs1)CC(=O)O [Compound G(ix), (Z)-N-(1-(4-(3-Thienyl)phenyl)-1-(2-thienyl)prop-1-en-3-yl)sarcosine]
[1]
  Clinical signs (observation code), Day 1, 4 hours: 0
  Clinical signs (observation code), Day 1, 24 hours: 0
  Clinical signs (observation code), Day 2, 4 hours: 0
  Clinical signs (observation code), Day 2, 24 hours: 0
  Clinical signs (observation code), Day 3, 4 hours: 0
  Clinical signs (observation code), Day 3, 24 hours: 0
  Clinical signs (observation code), Day 4, 4 hours: 0
  Clinical signs (observation code), Day 4, 24 hours: 0
  Clinical signs (observation code), Day 5, 4 hours: 0
  Clinical signs (observation code), Day 5, 24 hours: 0

## CC(C)c1ccc(/C(=C/CN(C)CC(=O)O)c2ccsc2)cc1 [Compound H, reference compound]
  Toxicity profile in comparison (compounds of formula 1 vs other GlyT1 inhibitors of similar potency): higher toxicity profile

## CN(C/C=C(/c1ccc(-c2ccsc2)cc1)c1ccsc1)CC(=O)O [Compound G(ii), (Z)-N-(1-(4-(3-Thienyl)phenyl)-1-(3-thienyl)prop-1-en-3-yl)sarcosine]
[1]
  Clinical signs (observation code), Day 1, 4 hours: 0
  Clinical signs (observation code), Day 1, 24 hours: 0
  Clinical signs (observation code), Day 2, 4 hours: 0 (2×) and 1
  Clinical signs (observation code), Day 2, 24 hours: 0
  Clinical signs (observation code), Day 3, 4 hours: 0
  Clinical signs (observation code), Day 3, 24 hours: 0
  Clinical signs (observation code), Day 4, 4 hours: 0
  Clinical signs (observation code), Day 4, 24 hours: 0
  Clinical signs (observation code), Day 5, 4 hours: 0 and 14
  Clinical signs (observation code), Day 5, 24 hours: 0

## CN(C/C=C(/c1ccc(-c2cccc(OC(F)(F)F)c2)cc1)c1ccsc1)CC(=O)O [Compound G(vii), (Z)-N-(1-(4-(3-(Trifluoromethoxy)phenyl)phenyl)-1-(3-thienyl)prop-1-en-3-yl)sarcosine]
[1]
  Clinical signs (observation code), Day 1, 4 hours: 0
  Clinical signs (observation code), Day 1, 24 hours: 0
  Clinical signs (observation code), Day 2, 4 hours: 0
  Clinical signs (observation code), Day 2, 24 hours: 0
  Clinical signs (observation code), Day 3, 4 hours: 0
  Clinical signs (observation code), Day 3, 24 hours: 0
  Clinical signs (observation code), Day 4, 4 hours: 0
  Clinical signs (observation code), Day 4, 24 hours: 0
  Clinical signs (observation code), Day 5, 4 hours: 0
  Clinical signs (observation code), Day 5, 24 hours: 0

## Cc1cscc1/C(=C\CN(C)CC(=O)O)c1ccc(-c2cccc(C(F)(F)F)c2)cc1 [Compound G(xi), (Z)-N-(1-(4-(3-(Trifluoromethyl)phenyl)phenyl)-1-(3-(4-methylthienyl))prop-1-en-3-yl)sarcosine]
[1]
  Clinical signs (observation code), Day 1, 4 hours: 0
  Clinical signs (observation code), Day 1, 24 hours: 0
  Clinical signs (observation code), Day 2, 4 hours: 0
  Clinical signs (observation code), Day 2, 24 hours: 0
  Clinical signs (observation code), Day 3, 4 hours: 0
  Clinical signs (observation code), Day 3, 24 hours: 0
  Clinical signs (observation code), Day 4, 4 hours: 0
  Clinical signs (observation code), Day 4, 24 hours: 0
  Clinical signs (observation code), Day 5, 4 hours: 0

## CN(C/C=C(/c1ccc(-c2cccc(C(F)(F)F)c2)cc1)c1ccc(Cl)s1)CC(=O)O [Compound K, reference compound]
[1]
  Clinical signs (observation code), Day 1, 4 hours: 1 and 0 (2×)
  Clinical signs (observation code), Day 1, 24 hours: 27*
  Toxicity profile in comparison (compounds of formula 1 vs other GlyT1 inhibitors of similar potency): higher toxicity profile

## CN(C/C=C(/c1ccc(-c2ccco2)cc1)c1ccsc1)CC(=O)O [Compound G(iv), (Z)-N-(1-(4-(2-Furyl)phenyl)-1-(3-thienyl)prop-1-en-3-yl)sarcosine]
[1]
  Clinical signs (observation code), Day 1, 4 hours: 0 and 14
  Clinical signs (observation code), Day 1, 24 hours: 0
  Clinical signs (observation code), Day 2, 4 hours: 0
  Clinical signs (observation code), Day 2, 24 hours: 0
  Clinical signs (observation code), Day 3, 4 hours: 14 (2×) and 0
  Clinical signs (observation code), Day 3, 24 hours: 0
  Clinical signs (observation code), Day 4, 4 hours: 0
  Clinical signs (observation code), Day 4, 24 hours: 0
  Clinical signs (observation code), Day 5, 4 hours: 0 (2×) and 14
  Clinical signs (observation code), Day 5, 24 hours: 0

## Cc1ccccc1/C(=C\CN(C)CC(=O)O)c1ccc(-c2ccsc2)cc1 [Compound G(xiv), (Z)-N-(1-(4-(3-Thienyl)phenyl)-1-(2-methylphenyl)prop-1-en-3-yl)sarcosine]
[1]
  Clinical signs (observation code), Day 1, 4 hours: 0
  Clinical signs (observation code), Day 1, 24 hours: 0
  Clinical signs (observation code), Day 2, 4 hours: 0
  Clinical signs (observation code), Day 2, 24 hours: 0
  Clinical signs (observation code), Day 3, 4 hours: 0
  Clinical signs (observation code), Day 3, 24 hours: 0
  Clinical signs (observation code), Day 4, 4 hours: 0
  Clinical signs (observation code), Day 4, 24 hours: 0
  Clinical signs (observation code), Day 5, 4 hours: 0
  Clinical signs (observation code), Day 5, 24 hours: 0

## Cc1cccc(-c2ccc(/C(=C/CN(C)CC(=O)O)c3sccc3C)cc2)c1 [Compound G(xiii), (Z)-N-(1-(4-(3-Methylphenyl)phenyl)-1-(2-(3-methylthienyl))prop-1-en-3-yl)sarcosine]
[1]
  Clinical signs (observation code), Day 1, 4 hours: 0
  Clinical signs (observation code), Day 1, 24 hours: 0
  Clinical signs (observation code), Day 2, 4 hours: 0
  Clinical signs (observation code), Day 2, 24 hours: 0
  Clinical signs (observation code), Day 3, 4 hours: 0
  Clinical signs (observation code), Day 3, 24 hours: 0
  Clinical signs (observation code), Day 4, 4 hours: 0
  Clinical signs (observation code), Day 4, 24 hours: 0
  Clinical signs (observation code), Day 5, 4 hours: 0

## CN(C/C=C(/c1ccc(-c2cccc(C#N)c2)cc1)c1ccsc1)CC(=O)O [Compound G(viii), (Z)-N-(1-(4-(3-Cyanophenyl)phenyl)-1-(3-thienyl)prop-1-en-3-yl)sarcosine]
[1]
  Clinical signs (observation code), Day 1, 4 hours: 0
  Clinical signs (observation code), Day 1, 24 hours: 0
  Clinical signs (observation code), Day 2, 4 hours: 0
  Clinical signs (observation code), Day 2, 24 hours: 0
  Clinical signs (observation code), Day 3, 4 hours: 0
  Clinical signs (observation code), Day 3, 24 hours: 0
  Clinical signs (observation code), Day 4, 4 hours: 0
  Clinical signs (observation code), Day 4, 24 hours: 0
  Clinical signs (observation code), Day 5, 4 hours: 0
  Clinical signs (observation code), Day 5, 24 hours: 0

## CN(C/C=C(\c1ccccc1)c1ccc(-c2ccccc2)cc1)CC(=O)O [Compound J, reference compound]
  Toxicity profile in comparison (compounds of formula 1 vs other GlyT1 inhibitors of similar potency): higher toxicity profile
PO, mice
  Clinical signs (observation code), Day 4, 4 hours: 0
Dose 10 (m↓kg) PO, mice
  Clinical signs (observation code), Day 1, 4 hours: 0
  Clinical signs (observation code), Day 2, 4 hours: 0
  Clinical signs (observation code), Day 3, 4 hours: 0
  Clinical signs (observation code), Day 5, 4 hours: 0
Dose 25 (m↓kg) PO, mice
  Clinical signs (observation code), Day 1, 24 hours: 0
  Clinical signs (observation code), Day 2, 24 hours: 0 and 2

## CC(C)c1ccc(-c2ccc(/C(=C/CN(C)CC(=O)O)c3ccsc3)cc2)cc1 [Compound G(i), (Z)-N-(1-(4-(4-Isopropylphenyl)phenyl)-1-(3-thienyl)prop-1-en-3-yl)sarcosine]
[1]
  Clinical signs (observation code), Day 1, 4 hours: 0
  Clinical signs (observation code), Day 1, 24 hours: 0
  Clinical signs (observation code), Day 2, 4 hours: 0
  Clinical signs (observation code), Day 2, 24 hours: 0
  Clinical signs (observation code), Day 3, 4 hours: 0
  Clinical signs (observation code), Day 3, 24 hours: 0
  Clinical signs (observation code), Day 4, 4 hours: 0
  Clinical signs (observation code), Day 4, 24 hours: 0
  Clinical signs (observation code), Day 5, 4 hours: 0
  Clinical signs (observation code), Day 5, 24 hours: 0

## CN(C/C=C(\c1ccccc1)c1ccc(-c2ccsc2)cc1)CC(=O)O [Compound I, reference compound]
[1]
  Clinical signs (observation code), Day 1, 24 hours: 0
  Clinical signs (observation code), Day 2, 24 hours: 0
  Clinical signs (observation code), Day 3, 24 hours: 0
  Clinical signs (observation code), Day 4, 24 hours: 0
  Toxicity profile in comparison (compounds of formula 1 vs other GlyT1 inhibitors of similar potency): higher toxicity profile
